# Assay results from article PMC11670956, “A cell-based Papain-like Protease (PLpro) activity assay for rapid detection of active SARS-CoV-2 infections and antivirals” (PLOS ONE, 2024).
# Molecular target: T1, SARS-CoV-2 Papain-like protease (PLpro) (Severe acute respiratory syndrome coronavirus 2, UniProt P0DTD1)
# T1 construct: gene rep; natural full-length PLpro (nsp3) made in infected VeroE6 cells, crude lysate; mature chain nsp3 of replicase polyprotein 1a / 1ab
# Assay: fluorogenic Pun74-R110 peptide cleavage in lysates of infected, inhibitor-pretreated VeroE6 cells
# Type: biochemical
# Conditions: unreliable (tentative; one experiment in duplicate); inhibitor given to live cells 2 h before infection (0.01 MOI, 24 h, 37 °C); PLpro read in lysate with 50 nM Pun74-R110, 5 mM DTT, pH 7.4, room temp
smiles,measurement,value
Cc1ccc(N)cc1C(=O)N[C@H](C)c1cccc2ccccc12 [GRL0617],IC50,38.3 µM
